From patent publication US20240325398A1, “COMBINATION THERAPIES” (Infinity Pharmaceuticals, Inc., priority 2014, published 2024)

Columns and labels:
[1] = tested on: CDK1, CDK2, CDK4, CDK7 and CDK9; details: in words; cited from earlier work
Farage = test: Combination study, ATPLite 72 h, dose matrix (Synergy Score, CI50); details: combination with Compound 1; Farage; 72 h
GRANTA-519 = test: as above; details: combination with Compound 1
Description: (§1) Cells are thawed from a liquid nitrogen preserved state. Once cells have been expanded and divide at their expected doubling times, screening begins. Cells are seeded in growth media in either black 1536-well or 384-well tissue culture treated plates. Cells are then equilibrated in assay plates via centrifugation and placed in incubators attached to the Dosing Modules at 37° C. for 24 hours before treatment. […] These Tzero (To) plates are read using ultra-sensitive luminescence on Envision plate readers (Perkin Elmer). Treated assay plates are incubated with compound for 72 hours. After 72 hours, plates are developed for endpoint analysis using ATPLite. All data points are collected via automated processes, quality controlled and analyzed using Zalicus software.
(§2) where T is treated cell count and V is untreated (vehicle) cell count (at 72 hours). I ranges from 0% (when T=V) to 100% (when T=0). […] The measure of effect in the experiment can be the inhibition of cellular response relative to the untreated level (vehicle alone). […] The inhibition ranges from 0% at the untreated level to 100% when T=0. Inhibition levels are negative for agents that actually increase levels. Other effect measures, such as an activity ratio r=T/V may be more appropriate for some assays. When activity ratios (e.g, fold increase over stimulated control) are being used, the effect can be measured using an induction 1=ln(T/V). With this definition, all effect expressions are the same as for inhibition.
(§3) Growth Inhibition (GI) is used as a measure of cell viability. […] A GI reading of 100% represents complete growth inhibition—T72 compound-treated and T0 vehicle signals are matched. […] A GI reading of 200% represents complete death of all cells in the culture well. Compounds reaching an activity plateau of GI 200% are considered cytotoxic. GI is calculated by applying the following test and equation:
(§4) Combination analysis data were collected in a 6×6 dose matrix. Synergy is calculated by comparing a combination's response to those of its single compound, against the drug-with-itself dose-additive reference model. Deviations from dose additivity may be assessed visually on an isobologram or numerically with a Combination Index (CI). […] Additive effect is CI=1.0. […] Antagonistic effect is CI>1.0.
(§5) To measure combination effects in excess of Loewe additivity, a scalar measure to characterize the strength of synergistic interaction termed the Synergy Score is devised. The Synergy Score is calculated as:
(§6) The fractional inhibition for each component agent and combination point in the matrix is calculated relative to the median of all vehicle-treated control wells. The Synergy Score equation integrates the experimentally-observed activity volume at each point in the matrix in excess of a model surface numerically derived from the activity of the component agents using the Loewe model for additivity. Additional terms in the Synergy Score equation (above) are used to normalize for various dilution factors used for individual agents and to allow for comparison of synergy scores across an entire experiment. The inclusion of positive inhibition gating or an Idata multiplier removes noise near the zero effect level, and biases results for synergistic interactions at that occur at high activity levels.
(§7) Loewe Volume (Loewe Vol) is used to assess the overall magnitude of the combination interaction in excess of the Loewe additivity model. Loewe Volume is particularly useful when distinguishing synergistic increases in a phenotypic activity (positive Loewe Volume) versus synergistic antagonisms (negative Loewe Volume). […] This model defines additivity as a non-synergistic combination interaction where the combination dose matrix surface should be indistinguishable from either drug crossed with itself.

[2] = as above; details: combination with Compound 1; OPM-2
Description: as §1, §2, §3, §4, §5, §6, §7

OMP-2 = test: as above; details: combination with Compound 1; OPM-2
Description: as §1, §2, §3, §4, §5, §6, §7

OCI-Ly7 = test: as above; details: combination with Compound 1, 72 h
OCI-Ly3 = test: as above; details: combination with Compound 1; OCI-Ly3; 72 h
WSU-NHL = test: as above; details: combination with Compound 1, 72 h
Jeko-1 = test: as above; details: combination with Compound 1
KARPAS-422 = test: as above; details: combination with Compound 1, 72 h
U-2932 = test: as above; details: combination with Compound 1, 72 h
HBL-1 = test: as above; details: combination with Compound 1, 72 h
NCI-H929 = test: as above; details: combination with Compound 1
KARPAS-299 = test: as above; details: combination with Compound 1
Mino = test: as above; details: combination with Compound 1
RPMI-8226 = test: as above; details: combination with Compound 1
DOHH-2 = test: as above; details: combination with Compound 1, 72 h
TMD8 = test: as above; details: combination with Compound 1; TMD8; 72 h
Description: as §1, §2, §3, §4
The isobologram was drawn by identifying the locus of concentrations that correspond to crossing the indicated inhibition level. This is done by finding the crossing point for each single agent concentration in a dose matrix across the concentrations of the other single agent. Practically, each vertical concentration CY is held fixed while a bisection algorithm is used to identify the horizontal concentration CX in combination with that vertical dose that gives the chosen effect level in the response surface Z(CX,CY). These concentrations are then connected by linear interpolation to generate the isobologram display. For synergistic interactions, the isobologram contour fall below the additivity threshold and approaches the origin, and an antagonistic interaction would lie above the additivity threshold. The error bars represent the uncertainty arising from the individual data points used to generate the isobologram. The uncertainty for each crossing point is estimated from the response errors using bisection to find the concentrations where Z−αZ(CX,CY) and Z+σZ(CX,CY) cross Icut, where αZ is the standard deviation of the residual error on the effect scale.
as §5
The fractional inhibition for each component agent and combination point in the matrix is calculated relative to the median of all vehicle-treated control wells.

RL = test: as above; details: combination with Compound 1, 72 h
HH = test: as above; type: cell-based; details: combination with Compound 1
Description: The method is described as follows.
Additive effect is CI=1.0. […] Antagonistic effect is CI>1.0.
The Synergy Score is calculated as: […]

SU-DHL-4-epst = test: as above; details: combination with Compound 1, 72 h
SU-DHL-10-epst = test: as above; details: combination with Compound 1, 72 h

CC1(C)/C(=C2/C(=O)Nc3ccc(S(N)(=O)=O)cc32)Nc2ccccc21 [ZK-304709, (Z)-3,3-dimethyl-2′-oxo-[2,3′-biindolinylidene]-5′-sulfonamide]
nanomolar range: IC50 values, CDK1, CDK2, CDK4, CDK7 and CDK9 [1]

CC(C)C[C@H](NC(=O)[C@H](CCc1ccccc1)NC(=O)CN1CCOCC1)C(=O)N[C@@H](Cc1ccccc1)C(=O)N[C@@H](CC(C)C)C(=O)[C@@]1(C)CO1 [carfilzomib, (S)-4-methyl-N—((S)-1-(((S)-4-methyl-1-((R)-2-methyloxiran-2-yl)-1-oxopentan-2-yl)amino)-1-oxo-3-phenylpropan-2-yl)-2-((S)-2-(2-morpholinoacetamido)-4-phenylbutanamido)pentanamide]
T (T=0.5 to <0.7): CI50 growth inhibition (GRANTA-519) | CI50 growth inhibition (KARPAS-422) | CI50 growth inhibition (HBL-1) | CI50 growth inhibition (HH) | CI50 inhibition (HH)
A1 (A1=0.0001 to <1): Synergy Score inhibition (Farage) | Synergy Score inhibition (GRANTA-519) | Synergy Score inhibition (OMP-2) | Synergy Score inhibition (OCI-Ly7) | Synergy Score inhibition (OCI-Ly3) | Synergy Score inhibition (WSU-NHL) | Synergy Score growth inhibition (Jeko-1) | Synergy Score inhibition (Jeko-1) | Synergy Score inhibition (KARPAS-422) | Synergy Score growth inhibition (HBL-1) | Synergy Score inhibition (HBL-1) | Synergy Score inhibition (NCI-H929) | Synergy Score growth inhibition (KARPAS-299) | Synergy Score inhibition (KARPAS-299) | Synergy Score inhibition (Mino) | Synergy Score inhibition (RPMI-8226) | Synergy Score inhibition (DOHH-2) | Synergy Score growth inhibition (RL) | Synergy Score inhibition (RL) | Synergy Score inhibition (HH)
W (W=≥1): CI50 inhibition (GRANTA-519) | CI50 growth inhibition (OCI-Ly7) | CI50 inhibition (OCI-Ly7) | CI50 inhibition (OCI-Ly3) | CI50 inhibition (NCI-H929) | CI50 growth inhibition (KARPAS-299) | CI50 inhibition (KARPAS-299) | CI50 inhibition (RPMI-8226) | CI50 growth inhibition (RL) | CI50 inhibition (RL)
A2 (A2=1 to <3): Synergy Score growth inhibition (GRANTA-519) | Synergy Score growth inhibition (OMP-2) | Synergy Score growth inhibition (OCI-Ly7) | Synergy Score growth inhibition (OCI-Ly3) | Synergy Score growth inhibition (WSU-NHL) | Synergy Score growth inhibition (U-2932) | Synergy Score inhibition (U-2932) | Synergy Score growth inhibition (Mino) | Synergy Score inhibition (TMD8) | Synergy Score inhibition (SU-DHL-4-epst) | Synergy Score inhibition (SU-DHL-10-epst)
A3 (A3=>3): Synergy Score growth inhibition (Farage) | Synergy Score growth inhibition (KARPAS-422) | Synergy Score growth inhibition (NCI-H929) | Synergy Score growth inhibition (RPMI-8226) | Synergy Score growth inhibition (DOHH-2) | Synergy Score growth inhibition (TMD8) | Synergy Score growth inhibition (HH) | Synergy Score growth inhibition (SU-DHL-4-epst) | Synergy Score growth inhibition (SU-DHL-10-epst)
U (U=0.7 to <1): CI50 growth inhibition (Farage) | CI50 inhibition (Farage) | CI50 growth inhibition [2] | CI50 inhibition (OMP-2) | CI50 growth inhibition (OCI-Ly3) | CI50 growth inhibition (WSU-NHL) | CI50 inhibition (WSU-NHL) | CI50 growth inhibition (Jeko-1) | CI50 inhibition (Jeko-1) | CI50 inhibition (KARPAS-422) | CI50 growth inhibition (U-2932) | CI50 inhibition (U-2932) | CI50 inhibition (HBL-1) | CI50 growth inhibition (NCI-H929) | CI50 growth inhibition (Mino) | CI50 inhibition (Mino) | CI50 growth inhibition (RPMI-8226) | CI50 growth inhibition (DOHH-2) | CI50 inhibition (DOHH-2) | CI50 growth inhibition (TMD8) | CI50 inhibition (TMD8) | CI50 growth inhibition (SU-DHL-4-epst) | CI50 inhibition (SU-DHL-4-epst) | CI50 growth inhibition (SU-DHL-10-epst) | CI50 inhibition (SU-DHL-10-epst)
